Results: PubChem BioAssay AID248 (DTP/NCI, 2004)
“And” between values parts separate entries of the source, which are not always exact repeats. Identical values can stand only once. Inconclusive results and toxic doses are left out. No stated cut-off is given here; in the data, active means T/C of 150% or more; inactive means T/C below 125%. Square brackets hold non-standard residues; d marks the D form. Peptide text beside a SMILES is read from it. * marks the point of attachment. ξ: configuration not given here. Cbz = O=C(OCc1ccccc1)*; ξL = CC(C)CC(N)C(=O)O

Test system: L1210 leukemia ip in BDF1 mice, survival T/C
Experiment: NCI In Vivo Anticancer Drug Screen. Data for tumor model L1210 Leukemia (intraperitoneal) in B6D2F1 (BDF1) mice
Conditions: endpoint: mean survival time, higher = longer survival
Outline: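 Mice bearing the transplanted tumor received compound or vehicle. Survival of the treated group was divided by that of the vehicle-treated control group to give the ratio.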

[1] = dose: 50.0 mg/kg/injection, schedule: Q01DX009 (ip), vehicle: saline with Tween-80
[2] = dose: 50.0 mg/kg/injection, schedule: Q04DX003 (ip), vehicle: saline
[3] = dose: 100.0 mg/kg/injection, schedule: Q01DX009 (ip), vehicle: saline with Tween-80
[4] = dose: 100.0 mg/kg/injection, schedule: Q04DX003 (ip), vehicle: saline
[5] = dose: 200.0 mg/kg/injection, schedule: Q01DX009 (ip), vehicle: saline with Tween-80
[6] = dose: 50.0 mg/kg/injection, schedule: Q01DX009 (ip), vehicle: saline
[7] = dose: 100.0 mg/kg/injection, schedule: Q01DX009 (ip), vehicle: saline
[8] = dose: 100.0 mg/kg/injection, schedule: Q04DX002 (ip), vehicle: saline
[9] = dose: 200.0 mg/kg/injection, schedule: Q04DX002 (ip), vehicle: saline
[10] = dose: 100.0 mg/kg/injection, schedule: Q01DX001 (ip), vehicle: Klucel (hydroxypropylcellulose) (HPC)
[11] = dose: 100.0 mg/kg/injection, schedule: Q04DX003 (ip), vehicle: Klucel (hydroxypropylcellulose) (HPC)
[12] = dose: 100.0 mg/kg/injection, schedule: Q04DX003 (ip), vehicle: saline with Tween-80
[13] = dose: 200.0 mg/kg/injection, schedule: Q04DX003 (ip), vehicle: saline with Tween-80
[14] = dose: 400.0 mg/kg/injection, schedule: Q04DX003 (ip), vehicle: saline with Tween-80
[15] = dose: 200.0 mg/kg/injection, schedule: Q04DX003 (ip), vehicle: saline
[16] = dose: 200.0 mg/kg/injection, schedule: Q01DX009 (ip), vehicle: saline

Measured: T/C

ON1CCCC1
inactive: dose: 100.0 mg/kg/injection, schedule: Q01DX009 (ip), vehicle: water 95 % of control | dose: 100.0 mg/kg/injection, schedule: Q04DX003 (ip), vehicle: water 92 % of control | dose: 200.0 mg/kg/injection, schedule: Q01DX009 (ip), vehicle: water 101 % of control | dose: 200.0 mg/kg/injection, schedule: Q04DX003 (ip), vehicle: water 92 % of control | dose: 400.0 mg/kg/injection, schedule: Q04DX003 (ip), vehicle: water 92 % of control

O=C(O)/C=C/C(=O)OCCBr
inactive: dose: 25.0 mg/kg/injection, schedule: Q04DX003 (ip), vehicle: saline 92 % of control | [1] 100 % of control | [2] 95 % of control | [3] 115 % of control | [4] 90 % of control | [5] 97 % of control

CNC(Cl)(Cl)NC
inactive: [6] 90 % of control | [7] 87 % of control | [8] 86 % of control | [9] 88 % of control

O=[N+]([O-])c1ccc(/C=N/C(/N=C/c2ccc([N+](=O)[O-])cc2)c2ccc([N+](=O)[O-])cc2)cc1
inactive: dose: 75.0 mg/kg/injection, schedule: Q01DX009 (ip), vehicle: carboxymethylcellulose (CMC) 94 % of control | dose: 100.0 mg/kg/injection, schedule: Q04DX003 (ip), vehicle: carboxymethylcellulose (CMC) 97 % of control | dose: 150.0 mg/kg/injection, schedule: Q01DX009 (ip), vehicle: carboxymethylcellulose (CMC) 90 % of control | dose: 200.0 mg/kg/injection, schedule: Q04DX003 (ip), vehicle: carboxymethylcellulose (CMC) 95 % of control | dose: 300.0 mg/kg/injection, schedule: Q01DX009 (ip), vehicle: carboxymethylcellulose (CMC) 92 % of control | dose: 400.0 mg/kg/injection, schedule: Q04DX003 (ip), vehicle: carboxymethylcellulose (CMC) 92 % of control

c1ccc(COc2ccnc(SCc3ccccc3)n2)cc1
inactive: [10] 90 % of control | dose: 100.0 mg/kg/injection, schedule: Q01DX009 (ip), vehicle: Klucel (hydroxypropylcellulose) (HPC) 95 % of control | dose: 200.0 mg/kg/injection, schedule: Q01DX001 (ip), vehicle: Klucel (hydroxypropylcellulose) (HPC) 95 % of control | dose: 200.0 mg/kg/injection, schedule: Q01DX009 (ip), vehicle: Klucel (hydroxypropylcellulose) (HPC) 93 % of control | dose: 400.0 mg/kg/injection, schedule: Q01DX001 (ip), vehicle: Klucel (hydroxypropylcellulose) (HPC) 100 % of control

CC(C)(C)NC(=O)CCC1CC(=O)NC12CCCCC2 (configuration not stated)
inactive: dose: 75.0 mg/kg/injection, schedule: Q01DX009 (ip), vehicle: Klucel (hydroxypropylcellulose) (HPC) 90 % of control | dose: 150.0 mg/kg/injection, schedule: Q01DX009 (ip), vehicle: Klucel (hydroxypropylcellulose) (HPC) 91 % of control | dose: 300.0 mg/kg/injection, schedule: Q01DX009 (ip), vehicle: Klucel (hydroxypropylcellulose) (HPC) 96 % of control

COc1ccc2ccccc2c1/C=N/N1CCCCC1
inactive: [3] 100 % of control | [5] 93 % of control | dose: 400.0 mg/kg/injection, schedule: Q01DX009 (ip), vehicle: saline with Tween-80 100 % of control

CCOC(=O)c1c(N)sc(C)c1C
inactive: [11] 102 % of control | dose: 200.0 mg/kg/injection, schedule: Q04DX003 (ip), vehicle: Klucel (hydroxypropylcellulose) (HPC) 94 % of control | dose: 400.0 mg/kg/injection, schedule: Q04DX003 (ip), vehicle: Klucel (hydroxypropylcellulose) (HPC) 97 % of control

Fc1c(F)c(F)c(Oc2c(F)c(F)c(Br)c(F)c2F)c(F)c1F
inactive: dose: 100.0 mg/kg/injection, schedule: Q01DX001 (ip), vehicle: saline with Tween-80 88 % of control | dose: 200.0 mg/kg/injection, schedule: Q01DX001 (ip), vehicle: saline with Tween-80 88 % of control | dose: 400.0 mg/kg/injection, schedule: Q01DX001 (ip), vehicle: saline with Tween-80 88 % of control

O=C(O)c1ccccc1NCc1cc(=O)[nH]c(=O)[nH]1
inactive: [12] 101 % of control | [13] 98 % of control | [14] 95 % of control

c1ccc(N/N=C(\Oc2ccccc2)c2ccccc2)cc1
inactive: [12] 93 % of control | [13] 96 % of control | [14] 96 % of control

ClC1=NC(c2ccc(Cl)cc2)N2C1C2c1ccccc1 (configuration not stated)
inactive: [12] 92 % of control | [13] 92 % of control | [14] 94 % of control

CC(C)=C1C2C=CC1C1C(=O)OC(=O)C21 (configuration not stated)
inactive: dose: 12.5 mg/kg/injection, schedule: Q04DX003 (ip), vehicle: Klucel (hydroxypropylcellulose) (HPC) 107 % of control | dose: 25.0 mg/kg/injection, schedule: Q01DX009 (ip), vehicle: Klucel (hydroxypropylcellulose) (HPC) 98 % of control | dose: 25.0 mg/kg/injection, schedule: Q04DX003 (ip), vehicle: Klucel (hydroxypropylcellulose) (HPC) 96 % of control | dose: 50.0 mg/kg/injection, schedule: Q01DX009 (ip), vehicle: Klucel (hydroxypropylcellulose) (HPC) 95 % of control | dose: 50.0 mg/kg/injection, schedule: Q04DX003 (ip), vehicle: Klucel (hydroxypropylcellulose) (HPC) 103 % of control | [10] 94 % of control | [11] 100 % of control

CCCCC(CC)C1NCCO1 (configuration not stated)
inactive: [1] 87 % of control | [3] 100 % of control | [12] 105 % of control | [5] 93 % of control | [13] 86 % of control

CC(=O)OC1c2ccccc2-c2ccc([N+](=O)[O-])cc21 (configuration not stated)
inactive: [12] 93 % of control and 100 % of control | [13] 100 % of control and 102 % of control | [14] 96 % of control and 98 % of control

C/C=C(/C)N(C(C)=O)N(C(C)=O)c1ccc([N+](=O)[O-])cc1[N+](=O)[O-]
inactive: dose: 100.0 mg/kg/injection, schedule: Q01DX009 (ip), vehicle: other 103 % of control | [4] 104 % of control | dose: 200.0 mg/kg/injection, schedule: Q01DX009 (ip), vehicle: other 101 % of control | [15] 105 % of control | dose: 400.0 mg/kg/injection, schedule: Q01DX009 (ip), vehicle: other 97 % of control | dose: 400.0 mg/kg/injection, schedule: Q04DX003 (ip), vehicle: saline 107 % of control

[N-]=[N+]=NC(c1ccccc1)(c1ccccc1)c1ccccc1
inactive: dose: 100.0 mg/kg/injection, schedule: Q04DX002 (ip), vehicle: saline with Tween-80 97 % of control | dose: 200.0 mg/kg/injection, schedule: Q04DX002 (ip), vehicle: saline with Tween-80 97 % of control | dose: 400.0 mg/kg/injection, schedule: Q04DX002 (ip), vehicle: saline with Tween-80 97 % of control

COc1ccc(/C=C2\N=C(c3ccc(Cl)cc3)OC2=O)cc1Br
inactive: [8] 101 % of control | [9] 93 % of control | dose: 400.0 mg/kg/injection, schedule: Q04DX002 (ip), vehicle: saline 108 % of control

CCCCCCCCC1SC1CCCCCCCC(=O)N1CCCN(C(=O)CCCCCCCC2SC2CCCCCCCC)C1 (configuration not stated)
inactive: [12] 92 % of control | [13] 95 % of control | [14] 97 % of control

CCOC(=O)c1ccc(N2C(=O)C=CC2=O)cc1
inactive: [12] 96 % of control | [13] 98 % of control | [14] 89 % of control

C=C(Br)CN1CCCC1=O
inactive: dose: 75.0 mg/kg/injection, schedule: Q01DX009 (ip), vehicle: saline 98 % of control | dose: 150.0 mg/kg/injection, schedule: Q01DX009 (ip), vehicle: saline 106 % of control | dose: 300.0 mg/kg/injection, schedule: Q01DX009 (ip), vehicle: saline 114 % of control

CCOC(=O)C1C(=O)NCC1c1ccccc1 (configuration not stated)
inactive: [6] 94 % of control and 97 % of control | [7] 104 % of control | [16] 108 % of control and 91 % of control

COC(=O)CNC(=O)C(CC(C)C)NC(=O)OCc1ccccc1 (configuration not stated) (Cbz-[ξL]-Gly-OMe)
inactive: [6] 98 % of control | [2] 94 % of control | dose: 100.0 mg/kg/injection, schedule: Q01DX001 (ip), vehicle: saline 97 % of control | [7] 100 % of control | [4] 91 % of control | dose: 200.0 mg/kg/injection, schedule: Q01DX001 (ip), vehicle: saline 94 % of control | [16] 98 % of control | [15] 96 % of control

CC(=O)OCC1OC(n2nnc(CBr)c2CBr)C(OC(C)=O)C(OC(C)=O)C1OC(C)=O (configuration not stated)
inactive: dose: 12.5 mg/kg/injection, schedule: Q01DX005 (ip), vehicle: other 94 % of control | dose: 25.0 mg/kg/injection, schedule: Q01DX005 (ip), vehicle: other 102 % of control | dose: 50.0 mg/kg/injection, schedule: Q01DX005 (ip), vehicle: other 97 % of control
